# Reference: publication PMC4893612 (Scientific Reports, 2016)
# What was measured:
# [1] = tested on: KMS-11; experiment: MTT antiproliferative assay, KMS-11; type: cell-based; conditions: Homo sapiens, 72 hours
# Procedure: Cell viability was monitored by the MTT (3-(4,5-dimethylthiazol-2-yl)-2,5-diphenyltetrazolium bromide) assay. For the MTT assay, cells were suspended at 5 × 10^5 cells/ml, and 100 μl aliquots were dispended into 96-well microtiter plates and exposed to drugs as described using DMSO control. At the end of incubations, 10 μl of a stock solution of 5 mg/ml MTT (3-(4,5-dimethylthiazol-2-yl)-2,5-diphenyltetrazolium bromide), was added into each well, and the plates were incubated 4 hours at 37 °C. Formazan crystals were dissolved with 100 μl of 10% SDS/10 mM HCl solution overnight at 37 °C. Since MTT assays are affected by mitochondrial activity, and since OXPHOS is affected by VLX1570 (unpublished observation), we used the acid phosphatase method[49] to determine cell viability in some experiments. After washing twice with PBS, cells were lysed in 100 μl of 0.1 M sodium acetate, 0,1% Triton X-100, p-nitrophenylphosphate (Pierce Biotechnology Inc, Rockford, IL) and incubated for 90 min at 37 °C. At the end of the incubation, 10 μl NaOH was added to each well and A405 was determined.
# [2] = molecular target: T1, UCHL5 (Homo sapiens, UniProt Q9Y5K5); experiment: SPR binding to recombinant UCHL5, NTA chip; conditions: protein from ProSpec, read-out: UCHL5(P) KD
# T1 sequence (Q9Y5K5 1-329): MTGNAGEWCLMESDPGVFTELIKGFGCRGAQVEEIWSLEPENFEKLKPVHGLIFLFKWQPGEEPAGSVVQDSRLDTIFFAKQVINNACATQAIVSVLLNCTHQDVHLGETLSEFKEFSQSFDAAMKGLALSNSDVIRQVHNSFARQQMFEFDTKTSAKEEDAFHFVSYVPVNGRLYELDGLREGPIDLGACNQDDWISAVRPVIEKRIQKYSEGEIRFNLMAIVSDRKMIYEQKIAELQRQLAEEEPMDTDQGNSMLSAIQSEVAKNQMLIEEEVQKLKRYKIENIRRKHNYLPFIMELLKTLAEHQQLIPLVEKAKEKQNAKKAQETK
# From the text: A BIACORE T200 was used for characterization of the interaction between compounds and USP14, UCHL5 and 26S proteasome. The standard BIACORE protocols were used for NTA chip (Ni/His-tag immobilization) and CM7 chip for compound interaction studies with slight modification described below. The x6 his-tagged USP14 and UCHL5 proteins were coupled to a Series S NTA BIACORE sensor chip in the BIACORE T200 using the his-tags for adherence of the proteins to the surface and an amine coupling procedure for covalent attachment to the chip surface. NTA chip was cleaned using three 500 μM EDTA injections followed by an injection of 500 μM Ni^2+ and activation of the chip surface with EDC/NHS injection according to BIACORE standard methods. Each chip has four separate areas, which were handled separately during the immobilization procedure. Area 1 was used as blank reference surface, area 2–4 was coupled with investigated recombinant proteins or complexes. Proteins were diluted in running buffer (10 mM HEPES, 150 mM NaCl, 0,005% Tween 20) to typically 10 μg/ml before injection(1 mL) over the prepared surfaces. […] The immobilization procedure was followed by injections of compound concentration series of VLX1570. […] Rmax and KD were calculated using Langmuir binding isotherms as provided in the Biacore software.
# [3] = molecular target: T2, USP5 (Homo sapiens, UniProt P45974); experiment: SPR binding to USP5; conditions: data not shown
# T2 sequence (P45974 1-858): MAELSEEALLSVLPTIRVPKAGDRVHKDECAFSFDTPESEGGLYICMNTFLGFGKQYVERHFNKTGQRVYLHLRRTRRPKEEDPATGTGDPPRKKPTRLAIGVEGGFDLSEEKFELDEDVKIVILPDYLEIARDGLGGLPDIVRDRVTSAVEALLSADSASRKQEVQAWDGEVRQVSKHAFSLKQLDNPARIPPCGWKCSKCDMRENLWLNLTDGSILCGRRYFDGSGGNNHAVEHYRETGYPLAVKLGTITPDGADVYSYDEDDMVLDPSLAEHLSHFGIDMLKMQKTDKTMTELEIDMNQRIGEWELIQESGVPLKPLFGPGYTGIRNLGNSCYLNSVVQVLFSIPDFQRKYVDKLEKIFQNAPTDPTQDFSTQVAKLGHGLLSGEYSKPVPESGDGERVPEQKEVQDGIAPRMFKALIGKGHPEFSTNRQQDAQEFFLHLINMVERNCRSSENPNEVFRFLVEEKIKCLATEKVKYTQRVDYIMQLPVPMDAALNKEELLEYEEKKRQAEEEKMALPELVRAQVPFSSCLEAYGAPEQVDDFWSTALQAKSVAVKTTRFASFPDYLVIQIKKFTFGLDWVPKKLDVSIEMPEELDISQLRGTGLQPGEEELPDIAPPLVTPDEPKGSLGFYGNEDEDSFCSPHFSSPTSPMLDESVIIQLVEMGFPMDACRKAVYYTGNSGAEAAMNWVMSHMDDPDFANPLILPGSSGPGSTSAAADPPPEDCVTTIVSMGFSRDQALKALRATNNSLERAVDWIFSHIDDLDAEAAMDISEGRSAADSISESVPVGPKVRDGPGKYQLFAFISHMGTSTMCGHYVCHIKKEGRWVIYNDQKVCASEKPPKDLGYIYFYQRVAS
# [4] = tested on: myeloma cells; experiment: CFSE cell proliferation assay; type: cell-based, human; conditions: 0.25 μM or 0.5 μM; 72 hours
# Procedure: Cell proliferation was measured using the Cell trace^TM CSFE cell proliferation kit. Cells were suspended at 5 × 10^5 cells/ml, incubated with CellTrace^TM reagent for 20 minutes and exposed to the drug at indicated concentrations using DMSO as a control. After 72 h cells were collected, washed twice in 1× PBS, fixed with 3,7% formaldehyde and analysed by flow cytometry.
# [5] = tested on: non-proteasomal DUBs; design: method as in PMID 25854145; conditions: cited from earlier work
smiles,measurement,setting,value
C=CC(=O)N1CC/C(=C\c2ccc(F)c([N+](=O)[O-])c2)C(=O)/C(=C/c2ccc(F)c([N+](=O)[O-])c2)C1 [VLX1570],IC50,[1],0.043 ± 0.002 µM
same,Kd,[2],14 µM
same,saturable binding to USP5,[3],No saturable binding
same,cell cycle arrest (CFSE dilution),[4],arrest myeloma cells in the cell cycle
same,inhibition of a panel of non-proteasomal DUBs,[5],not inhibiting
